Experimental data from patent US12534493B2, “Bridged nucleoside and nucleotide” (Liid Pharmaceuticals, Inc., priority 2020, dated 2026).

What was measured:
Format in all cases: binding
[1] = tested on: double-stranded hairpin DNA: 5′-d(GGCAGAAGAAAAAGAGACGC)-C18 spacer-d(GCGTCTCTTTTTCTTCTGCC)-3′ (SEQ ID NO: 23); assay: Melting temperature (Tm) measurement, triple strand-forming ability, with double-stranded hairpin DNA; details: triplex with double-stranded hairpin DNA; for Tm: footnote: 10 mM sodium phosphate buffer (pH 7.0), 200 mM NaCl, 5 mM MgCl2; for ΔTm/mod.: change per modification vs natural oligonucleotide
Experimental: […] The sample solution was cooled to 15° C., and the measurement was started. The temperature was raised to 90° C. at a rate of 0.5° C. per minute, and the absorbance at 260 nm was plotted at intervals of 0.5° C. All Tm values were calculated by the midline method and the average of three independent measurement results was taken.

[2] = tested on: single-stranded RNA: 5′-r(ACGAGAACAUCC)-3′ (SEQ ID NO: 11); assay: Melting temperature (Tm) measurement, double strand-forming ability, with single-stranded RNA; details: duplex with single-stranded RNA SEQ ID NO: 11; for Tm: 10 mM phosphate buffer (pH7.0), 200 mM NaCl, 2.5 μM each oligonucleotide; for ΔTm/mod.: change per modification vs natural oligonucleotide
Experimental: (§1) A sample solution ([…]) with final concentrations of 10 mM phosphate buffer (pH7.0), 200 mM sodium chloride, and 2.5 μM each oligonucleotide was immersed in boiling water and slowly cooled to room temperature. The sample solution was cooled to 20° C., and the measurement was started. The temperature was raised to 90° C. at a rate of 0.5° C. per minute, and the absorbance at 260 nm was plotted at intervals of 0.5° C. All Tm values were calculated by the midline method and the average of three independent measurement results was taken.
(§2) conditions: 10 mM sodium phosphate buffer (pH7.0) containing 200 mM NaCl, […] of each strand

[3] = tested on: single-stranded DNA: 5′-d(ACGAGAACATCC)-3′ (SEQ ID NO: 12); assay: Melting temperature (Tm) measurement, double strand-forming ability, with single-stranded DNA; details: duplex with single-stranded DNA SEQ ID NO: 12; for Tm: 10 mM phosphate buffer (pH7.0), 200 mM NaCl, 2.5 μM each oligonucleotide; for ΔTm/mod.: change per modification vs natural oligonucleotide
Experimental: as §1, §2

| Substance | Tm [1] | ΔTm/mod. [1] | Tm [2] | ΔTm/mod. [2] | Tm [3] | ΔTm/mod. [3] |
| --- | --- | --- | --- | --- | --- | --- |
| 5′ -TCTTCTTTTTCTCT-3′: unmodified triplex-forming oligonucleotide; C shows 2′-deoxy-5-methylcytidine (DNA, all C 5-methyl, backbone not given here; triplex-forming oligonucleotide) | 31 °C | – | – | – | – | – |
| 5′ -TCTTCTTXTTCTCT-3′: modified oligonucleotide with one X modification; C shows 2′-deoxy-5-methylcytidine (DNA TCTTCTTTTTCTCT; X modified nucleotide; 5-methylcytidines; (2)..(2) 2′-Deoxy-5-methylcytidine; (5)..(5) 2′-Deoxy-5-methylcytidine; misc_difference (8)..(8) Me-TaNA; (11)..(11) 2′-Deoxy-5-methylcytidine; (13)..(13) 2′-Deoxy-5-methylcytidine) | 36 °C | +5.0 °C | – | – | – | – |
| 5′ -TCTTCTTYTTCTCT-3′: modified oligonucleotide with one Y modification; C shows 2′-deoxy-5-methylcytidine (DNA TCTTCTTTTTCTCT; Y modified nucleotide; 5-methylcytidines; (2)..(2) 2′-Deoxy-5-methylcytidine; (5)..(5) 2′-Deoxy-5-methylcytidine; misc_difference (8)..(8) LNA; (11)..(11) 2′-Deoxy-5-methylcytidine; (13)..(13) 2′-Deoxy-5-methylcytidine) | 37 °C | +6.0 °C | – | – | – | – |
| 5′-GGATGXXCTCGT-3′: modified oligonucleotide with two consecutive X modifications (DNA GGATGTTCTCGT; DNA oligonucleotide with modified nucleotide X, X not given here, further chemistry not given here) | – | – | 66 °C | +7.0 °C | 58 °C | +3.5 °C |
| 5′-GGATGYYCTCGT-3′: modified oligonucleotide with two consecutive Y modifications (DNA GGATGTTCTCGT; two Y modified nucleotides; misc_difference (6)..(6) LNA; misc_difference (7)..(7) LNA) | – | – | 64 °C | +6.0 °C | 57 °C | +3.0 °C |
| 5′-GGATGZZCTCGT-3′: modified oligonucleotide with two consecutive Z modifications (DNA GGATGTTCTCGT; two Z modified nucleotides; misc_difference (6)..(6) ENA; misc_difference (7)..(7) ENA) | – | – | 64 °C | +6.0 °C | 57 °C | +3.0 °C |
| 5′-GGAXGXTCTCGT-3′: modified oligonucleotide with two separated X modifications (DNA GGATGTTCTCGT; DNA oligonucleotide with modified nucleotide X, X not given here, further chemistry not given here) | – | – | 66 °C | +7.0 °C | 58 °C | +3.5 °C |
| 5′-GGAYGYTCTCGT-3′: modified oligonucleotide with two separated Y modifications (DNA GGATGTTCTCGT; two Y modified nucleotides; misc_difference (4)..(4) LNA; misc_difference (6)..(6) LNA) | – | – | 65 °C | +6.5 °C | 58 °C | +3.5 °C |
| 5′-GGAZGZTCTCGT-3′: modified oligonucleotide with two separated Z modifications (DNA GGATGTTCTCGT; two Z modified nucleotides; misc_difference (4)..(4) ENA; misc_difference (6)..(6) ENA) | – | – | 65 °C | +6.5 °C | 57 °C | +3.0 °C |
